{
  "source": "patent US20100137138A1",
  "about": "“HERBICIDE/SAFENER COMBINATION” (BAYER CROPSCIENCE AG, priority 2008, published 2010)",
  "format_in_all_cases": "in vivo",
  "key": {"[1]": {"test_system": "Wheat (Triso)", "experiment": "Pre-emergence herbicidal effect and safener effect, Wheat (Triso)", "settings": "herbicide dosage 100 g a.i./ha, visual scoring vs untreated controls", "source_text": "(§1) Seeds or rhizome pieces of mono- and dicotyledonous weed plants and crop plants were planted in peat pots in sandy loam and covered with earth. The herbicide/safener active ingredient combinations according to the invention, formulated as water-soluble powders or suspensions, and, in parallel experiments, the correspondingly formulated individual active ingredients were then applied to the surface of the covering earth at an application rate of 600 to 800 l of water/ha (converted) in a variety of dosages.\n(§2) After the treatment, the pots were placed in the greenhouse and kept under good growth conditions for the weeds and the crop plants. Visual scoring of the plant damage or emergence damage was carried out after the test plants had emerged after a test period of 2 to 4 weeks, in comparison with untreated controls."}, "[2]": {"test_system": "Barley (Adonis)", "experiment": "Post-emergence herbicidal effect and safener effect, Barley (Adonis)", "settings": "herbicide dosage 25 g a.i./ha, visual scoring vs untreated controls", "description": "(§3) Seeds or rhizome pieces of mono- and dicotyledonous harmful plants and of crop plants are planted in peat pots in sandy loam, covered with earth and grown in a greenhouse under good growth conditions. Alternatively to this, harmful plants occurring in the paddy rice cultivation are cultivated in pots in which water stands up to 2 cm above the soil surface. 10 to 20 days after sowing, the test plants are treated in the one to three-leaf stage. The herbicide/safener active ingredient combinations according to the invention, formulated as water-soluble powders or suspensions, and, in parallel experiments, the correspondingly formulated individual active ingredients are sprayed onto the green plant parts in various dosages using an application rate of 300 l of water/ha (converted) and, after the test plants have remained in the greenhouse under optimum growth conditions for 2-3 weeks, the effect of the preparations is scored visually in comparison with untreated controls. In the case of rice or in the case of harmful plants which occur in the rice cultivation, the active ingredients are also placed directly into the irrigation water (application analogous to the so-called granules application) or sprayed onto plants and into the irrigation water."}, "[3]": {"test_system": "Corn (Aventura)", "experiment": "Pre-emergence herbicidal effect and safener effect, Corn (Aventura)", "settings": "herbicide dosage 100 g a.i./ha, visual scoring vs untreated controls", "source_text": "as §1, §2"}, "[4]": {"test_system": "Corn (Aventura)", "experiment": "Post-emergence herbicidal effect and safener effect, Corn (Aventura)", "settings": "herbicide dosage 50 g a.i./ha, visual scoring vs untreated controls", "description": "as §3"}, "[5]": {"test_system": "Rice (Ballila)", "experiment": "Post-emergence herbicidal effect and safener effect, Rice (Ballila)", "settings": "herbicide dosage 100 g a.i./ha, visual scoring vs untreated controls", "description": "as §3"}},
  "data": [
    {"smiles": "COC(=O)c1nc(-c2ccc(Cl)c(OC)c2F)nc(N)c1Cl", "note": "[Compound I-272]", "values": [
      {"measurement": "% Effect (without safener)", "setting": "[1]", "value": 30, "unit": "%"},
      {"measurement": "% Effect (without safener)", "setting": "[2]", "value": 20, "unit": "%"},
      {"measurement": "% Effect (without safener)", "setting": "[3]", "value": 70, "unit": "%"},
      {"measurement": "% Effect (without safener)", "setting": "[4]", "value": 70, "unit": "%"},
      {"measurement": "% Effect (without safener)", "setting": "[5]", "value": 70, "unit": "%"}
    ]}
  ]
}
